For data set [1] the following is noted: Merck Index 13 edit.; cited from earlier work.
The nature of data set [2]: Dissolution of coumarin from PL75D/TP blend cap-coated shims in PBS. The class given is physicochemical. The conditions noted are these: PL75D/TP cap coats over TL/coumarin base coat, 37° C., FIG. 8. As for the experimental part: PL75D was dried at 70° C. at reduced pressure overnight. The dried pellets were compressed between two plates that were pre-heated to 230° C. and maintained for about 5 minutes. After the sample was cooled down to room temperature, it was placed in a vial filled with THF and stirred until dissolved (by visual observation). TP and TL were directly dissolved in THF by stirring the mixtures at room temperature. Coumarin was also dissolved in THF. The concentrations of all the solutions were about 1 wt-%. TL solution and coumarin solution were mixed at a weigh ratio of 1:1. This mixture is the base coating solution of a reservoir system. TP solution and PL75D solution were mixed at various weight ratios to make five different mixtures with the weight ratios of TP to PL75D being 100:0, 75:25, 50:50, 25:75, and 0:100. […]
Dissolution of coumarin from the cap-coated shims was conducted by placing the coated shims in glass vials that contained phosphate buffered saline solution (PBS, potassium phosphate monobasic (NF tested), 0.144 grams per liter (g/L), sodium chloride (USP tested), 9 g/L, and sodium phosphate dibasic (USP tested) 0.795 g/L, pH=7.0 to 7.2 at 37° C., purchased from HyClone, Logan, Utah). […] The concentration of coumarin in all these solutions was measured with a liquid chromatography (HP 1090) that was equipped with a UV detector. […]

As to `O=c1ccc2ccccc2o1` [Coumarin], the “Volume of cold water in which one gram dissolves” value in data set [1] is listed as 400 mL. In addition, the “Release rate versus cap coat composition” value in data set [2] is “release much faster from a 100% PL75D coated shim than that from 100% TP coated shim”.

The values above are taken from US20040033251A1, “Active agent delivery system including a polyurethane, medical device, and method” (Medtronic, Inc., priority 2002, published 2004).
